# Reference: patent US20250152585A1, “PHARMACEUTICAL COMPOUND” (Duke Street Bio Limited, priority 2022, published 2025)
# Where two headings read alike, the source gives them in different places.
# Columns and labels:
# [1] = target: T1, full length N-terminally FLAG-tagged PARP1 (Homo sapiens, UniProt P09874); test: PARP1 probe displacement HTRF assay; details: for Selectivity: PARP1 over PARP2, ratio Kd (PARP2)/Kd (PARP1); for Kd: binned Kd
# PARP1 = target: T2, PARP1 (Homo sapiens, UniProt P09874); test: NanoBRET cellular target occupancy assay, PARP1; format: cell-based; details: for Kd: HEK293 cells transiently transfected with PARP1-NanoLuc fusion, tracer 11 nM, 2 hours at 37° C., Kd by Cheng-Prussoff; for Selectivity: NanoBRET, PARP1 over PARP2, Kd (PARP2)/Kd (PARP1)
# T2 construct: host or cells: HEK293
# T2 sequence (P09874 whole entry, the tested form may be a part): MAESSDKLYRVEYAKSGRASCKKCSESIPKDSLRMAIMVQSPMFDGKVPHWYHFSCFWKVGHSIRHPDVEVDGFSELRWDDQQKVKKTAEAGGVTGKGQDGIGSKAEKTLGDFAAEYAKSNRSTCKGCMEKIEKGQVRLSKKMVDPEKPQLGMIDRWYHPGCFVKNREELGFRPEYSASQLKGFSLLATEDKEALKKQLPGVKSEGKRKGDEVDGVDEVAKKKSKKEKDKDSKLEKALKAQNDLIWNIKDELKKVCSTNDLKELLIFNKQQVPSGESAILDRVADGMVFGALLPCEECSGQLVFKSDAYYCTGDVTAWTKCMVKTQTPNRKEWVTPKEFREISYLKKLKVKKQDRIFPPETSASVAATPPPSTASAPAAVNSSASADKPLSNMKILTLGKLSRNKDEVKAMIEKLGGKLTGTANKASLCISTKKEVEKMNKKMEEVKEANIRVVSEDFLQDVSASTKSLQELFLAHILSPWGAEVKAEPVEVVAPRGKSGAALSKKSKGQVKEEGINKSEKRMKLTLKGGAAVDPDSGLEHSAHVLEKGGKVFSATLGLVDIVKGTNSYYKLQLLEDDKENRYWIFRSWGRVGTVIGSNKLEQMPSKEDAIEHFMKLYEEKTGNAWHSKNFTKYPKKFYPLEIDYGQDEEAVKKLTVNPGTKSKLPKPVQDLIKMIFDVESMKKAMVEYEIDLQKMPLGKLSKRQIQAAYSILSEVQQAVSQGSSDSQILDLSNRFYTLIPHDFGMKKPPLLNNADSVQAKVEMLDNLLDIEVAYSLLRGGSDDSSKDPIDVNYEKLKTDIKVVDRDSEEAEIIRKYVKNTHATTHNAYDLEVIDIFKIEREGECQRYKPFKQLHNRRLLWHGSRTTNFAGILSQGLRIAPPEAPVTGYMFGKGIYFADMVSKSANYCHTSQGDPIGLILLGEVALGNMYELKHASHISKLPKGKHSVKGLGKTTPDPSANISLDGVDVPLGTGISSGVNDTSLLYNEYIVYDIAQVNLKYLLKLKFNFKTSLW
# [2] = target: T1, full length N-terminally FLAG-tagged PARP1; test: PARP1 biochemical DELFIA assay (auto-PARylation); design: recombinant full length human N-terminally FLAG-tagged PARP1
# [3] = target: T3, N-terminally FLAG-tagged PARP2 (amino acids 1-583) (Homo sapiens, UniProt Q9UGN5); test: PARP2 probe displacement HTRF assay; format: binding; details: binned Kd
# T3 construct: N-terminally FLAG-tagged PARP2 (amino acids 1-583)
# T3 sequence (Q9UGN5 whole entry, the tested form may be a part): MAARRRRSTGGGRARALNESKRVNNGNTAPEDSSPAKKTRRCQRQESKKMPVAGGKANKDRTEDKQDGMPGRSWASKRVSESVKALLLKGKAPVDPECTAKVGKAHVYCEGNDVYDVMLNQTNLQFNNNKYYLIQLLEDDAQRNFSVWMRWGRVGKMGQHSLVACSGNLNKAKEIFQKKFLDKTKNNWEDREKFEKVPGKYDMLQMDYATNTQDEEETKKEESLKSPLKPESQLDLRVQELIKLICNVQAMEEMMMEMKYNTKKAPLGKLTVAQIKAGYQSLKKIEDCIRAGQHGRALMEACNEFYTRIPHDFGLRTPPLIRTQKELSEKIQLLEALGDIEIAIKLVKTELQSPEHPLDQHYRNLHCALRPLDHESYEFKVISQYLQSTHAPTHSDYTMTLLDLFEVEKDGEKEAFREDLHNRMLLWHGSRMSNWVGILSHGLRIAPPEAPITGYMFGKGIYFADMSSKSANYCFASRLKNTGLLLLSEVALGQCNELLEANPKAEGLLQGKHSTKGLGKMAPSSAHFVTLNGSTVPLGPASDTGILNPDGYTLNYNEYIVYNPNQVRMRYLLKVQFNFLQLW
# Method: Data analysis was performed identical as for PARP1.
# PARP2 = target: T4, PARP2 (Homo sapiens, UniProt Q9UGN5); test: NanoBRET cellular target occupancy assay, PARP2; format: cell-based; details: HEK293 cells transiently transfected with PARP2-NanoLuc fusion; tracer 2 nM; 2 hours at 37° C.; Kd by Cheng-Prussoff
# T4 construct: host or cells: HEK293
# T4 sequence (Q9UGN5 whole entry, the tested form may be a part): as above
# Description: NanoBRET Cellular Target Occupancy Assay
# [4] = read-out: PARP1 HTRF, PARP1 probe displacement HTRF
# [5] = binned IC50, PARP1 biochemical DELFIA assay
# [6] = PARP1 HTRF, probe displacement HTRF
# [7] = binned IC50, biochemical auto-PARylation assay
# [8] = read-out: PARP1 HTRF, probe displacement HTRF
# T1 sequence (P09874 whole entry, the tested form may be a part): as the sequence (P09874 whole entry, the tested form may be a part) above
Compound,Selectivity ([1]; probe displacement HTRF),"Kd [1, 4] [nM]",Kd (PARP1) [nM],Selectivity (PARP1),"IC50 [2, 5] [nM]",Kd ([3]; PARP2 probe displacement HTRF) [nM],Kd (PARP2) [nM],"Kd [1, 6] [nM]","IC50 [2, 7] [nM]",Kd ([3]; probe displacement HTRF) [nM],"Kd [1, 8] [nM]"
"CNC(=O)c1ccc(N2CCC(N3CCC(c4nc5ccc(F)cc5c(=O)[nH]4)C3)CC2)cn1 (single isomer, unassigned) [Compound 64b]",+++ (+++ indicate a value of at least 100),< 10,< 10,+++ (+++ indicate a value of at least 100),< 10,100 to 1000,100 to 1000,,,,
"CNC(=O)c1ccc(N2CCC(N3CCC(c4cc5ccc(F)cc5c(=O)[nH]4)C3)CC2)c(C)n1 (single isomer, unassigned) [Compound 196a]",+++ (+++ indicate a value of at least 100),< 10,< 10,+++ (+++ indicate a value of at least 100),< 10,100 to 1000,100 to 1000,,,,
"CNC(=O)c1ccc(N2CCC(N3CCC(c4cc5ccc(F)cc5c(=O)[nH]4)C3)CC2)c(F)n1 (single isomer, unassigned) [Compound 174b]",+++ (+++ indicate a value of at least 100),< 10,< 10,+++ (+++ indicate a value of at least 100),< 10,10 to 100,100 to 1000,,,,
CNC(=O)c1ccc(N2CCC(N3CC4(c5nc6c(c(=O)[nH]5)CCC6)CC3C4)CC2)c(F)n1 [Compound 302],+++ (+++ indicate a value of at least 100),,10 to 100,+++ (+++ indicate a value of at least 100),,,> 10000,< 10,< 10,> 10000,
"CCc1ccc(C2CCN(C3CCN(c4ccc(C(=O)NCC(F)F)nc4)CC3)C2)[nH]c1=O (single isomer, unassigned) [Compound 354b]",+++ (+++ indicate a value of at least 100),,< 10,+++ (+++ indicate a value of at least 100),,,100 to 1000,,< 10,100 to 1000,< 10
"CNC(=O)c1ccc(N2CCC(N3CCC(c4nc5cccc(C(F)(F)F)c5c(=O)[nH]4)C3)CC2)cn1 (single isomer, unassigned) [Compound 86b]",+ (+ indicates a value of 10 to less than 50),< 10,< 10,+ (+ indicates a value of 10 to less than 50),< 10,< 10,10 to 100,,,,
"CNC(=O)c1ccc(N2CCC(N3CCC(c4ccc(CC5CC5)c(=O)[nH]4)C3)CC2)c(F)n1 (single isomer, unassigned) [Compound 313b]",+++ (+++ indicate a value of at least 100),,< 10,+++ (+++ indicate a value of at least 100),,,1000 to 10000,,< 10,1000 to 10000,< 10
"CCc1ccc(C2CCN(C3CCN(c4ccc(C(=O)NC5CC5)nc4F)CC3)C2)[nH]c1=O (single isomer, unassigned) [Compound 353a]",+++ (+++ indicate a value of at least 100),,< 10,+++ (+++ indicate a value of at least 100),,,100 to 1000,,< 10,100 to 1000,< 10
CNC(=O)c1ccc(N2CCC(N3CCC(c4cc5ccc(F)cc5c(=O)[nH]4)C3)CC2)c(Cl)n1 (racemic) [Compound 175rac],+++ (+++ indicate a value of at least 100),< 10,< 10,+++ (+++ indicate a value of at least 100),< 10,100 to 1000,1000 to 10000,,,,
CNC(=O)c1ccc(N2CCC(N3CCC(c4nc5[nH]cc(C(F)(F)F)c5c(=O)[nH]4)C3)CC2)cn1 (racemic) [Compound 150rac],− (− indicates a value of less than 10),< 10,10 to 100,+ (+ indicates a value of 10 to less than 50),< 10,< 10,100 to 1000,,,,
CNC(=O)c1ccc(N2CCC(N3CCC(c4cc5ccc(F)cc5c(=O)[nH]4)C3)CC2)c(F)n1 (racemic) [Compound 174rac],+++ (+++ indicate a value of at least 100),< 10,< 10,+++ (+++ indicate a value of at least 100),< 10,100 to 1000,1000 to 10000,,,,
"CCc1ccc(C2CCN(C3CCN(c4ccc(C(=O)NC)nc4)CC3)C2)[nH]c1=O (single isomer, unassigned) [Compound 72b]",+++ (+++ indicate a value of at least 100),< 10,< 10,+++ (+++ indicate a value of at least 100),< 10,100 to 1000,1000 to 10000,,,,
"CNC(=O)c1ccc(N2CCC(N3CCC(c4cc5cccc(F)c5c(=O)[nH]4)C3)CC2)c(F)n1 (single isomer, unassigned) [Compound 184b, 6-fluoro-5-[4-[3-(8-fluoro-1-oxo-2H-isoquinolin-3-yl)pyrrolidin-1-yl]piperidin-1-yl]-N-methylpyridine-2-carboxamide]",+++ (+++ indicate a value of at least 100),< 10,< 10,+++ (+++ indicate a value of at least 100),< 10,100 to 1000,100 to 1000,,,,
"CNC(=O)c1ccc(N2CCC(N3CCC(c4cc5c(F)ccc(F)c5c(=O)[nH]4)C3)CC2)c(F)n1 (single isomer, unassigned) [Compound 323b]",+++ (+++ indicate a value of at least 100),,< 10,+++ (+++ indicate a value of at least 100),,,100 to 1000,,< 10,10 to 100,< 10
"CCc1cnc(C23CC(C2)N(C2CCN(c4ccc(C(=O)NC)nc4)CC2)C3)[nH]c1=O [Compound 299, 5-(4-(4-(5-ethyl-6-oxo-1,6-dihydropyrimidin-2-yl)-2-azabicyclo[2.1.1]hexan-2-yl)piperidin-1-yl)-N-methylpicolinamide]",+++ (+++ indicate a value of at least 100),,10 to 100,+++ (+++ indicate a value of at least 100),,,> 10000,< 10,< 10,> 10000,
"O=C(NC1CC1)c1ccc(N2CCC(N3CCC(c4cc5cccc(F)c5c(=O)[nH]4)C3)CC2)cn1 (single isomer, unassigned) [Compound 339a]",+ (+ indicates a value of 10 to less than 50),,< 10,+ (+ indicates a value of 10 to less than 50),,,10 to 100,,< 10,10 to 100,< 10
"CNC(=O)c1ccc(N2CCC(N3CCC(c4cc5ncc(F)cc5c(=O)[nH]4)C3)CC2)c(F)n1 (racemic) [Compound 324rac, 6-fluoro-5-(4-(3-(3-fluoro-5-oxo-5,6-dihydro-1,6-naphthyridin-7-yl)pyrrolidin-1-yl)piperidin-1-yl)-N-methylpicolinamide]",+++ (+++ indicate a value of at least 100),,< 10,+++ (+++ indicate a value of at least 100),,,1000 to 10000,< 10,< 10,100 to 1000,
CNC(=O)c1ccc(N2CCC(N3CCC(c4cc5ncc(F)cc5c(=O)[nH]4)C3)CC2)cn1 (racemic) [Compound 315rac],+++ (+++ indicate a value of at least 100),,< 10,+++ (+++ indicate a value of at least 100),,,100 to 1000,,< 10,100 to 1000,< 10
"CNC(=O)c1ccc(N2CCC(N3CCC(c4cc5ccc(F)cc5c(=O)[nH]4)C3)CC2)c(F)n1 (single isomer, unassigned) [Compound 174a]",+++ (+++ indicate a value of at least 100),< 10,< 10,+++ (+++ indicate a value of at least 100),< 10,100 to 1000,1000 to 10000,,,,
"CCc1ccc(C2CCN(C3CCN(c4ccc(C(=O)NC)nc4Cl)CC3)C2)[nH]c1=O (single isomer, unassigned) [Compound 239b]",+++ (+++ indicate a value of at least 100),,< 10,+++ (+++ indicate a value of at least 100),,,1000 to 10000,,< 10,1000 to 10000,< 10
CNC(=O)c1ccc(N2CCC(N3CC4(c5nc6cccc(F)c6c(=O)[nH]5)CC3C4)CC2)c(F)n1 [Compound 228],+++ (+++ indicate a value of at least 100),,< 10,+++ (+++ indicate a value of at least 100),,,> 10000,< 10,< 10,1000 to 10000,
